Values after ≈ are worked out from the molar mass of the structure shown. Active and inactive are the calls of the source. The calls are words filed in the database; no cut-off is given here.
Experiments:
[1] = Aqueous solubility of compound in PBS at pH 7.4; type: physicochemical
MRC5 = assay: Cytotoxicity against human MRC5 cells at 10 to 40 uM by Cell Titer Glo assay; type: toxicity, cell-based; settings: mrc5, 40 µM, dose 10-40 µM
Polyprotein P1234 = Polyprotein P1234 (Chikungunya virus (strain S27-African prototype) (CHIKV), UniProt Q8JUX6); assay: Inhibition of N-terminal 6-His/SUMO-tagged CHIKV 181/25 nsP2 extracted from Escherichia coli Rosetta 2 preincubated for 30 mins followed by ATP addition measured after 1 hr by ADP-Glo assay
Chikungunya virus [2] = assay: Antiviral activity against CHIKV 181/25 expressing nLuc-capsid gene infected in human MRC5 cells assessed as reduction in viral replication preincubated with cells for 1 hr followed by viral infection measured after 6 hrs post-infection by Nano-glo luciferase assay; type: functional, organism-based
Chikungunya virus [3] = assay: Inhibition of N-terminal 6-His/SUMO-tagged CHIKV 181/25 nsP2 extracted from Escherichia coli Rosetta 2 at 200 uM preincubated for 30 mins followed by ATP addition measured after 1 hr by ADP-Glo assay relative to control; settings: time 90.0 min
[4] = 181/25, MRC5, read-out: pEC50 (converted)

Polyprotein P1234, sequence (Q8JUX6 536-1333 limits assumed): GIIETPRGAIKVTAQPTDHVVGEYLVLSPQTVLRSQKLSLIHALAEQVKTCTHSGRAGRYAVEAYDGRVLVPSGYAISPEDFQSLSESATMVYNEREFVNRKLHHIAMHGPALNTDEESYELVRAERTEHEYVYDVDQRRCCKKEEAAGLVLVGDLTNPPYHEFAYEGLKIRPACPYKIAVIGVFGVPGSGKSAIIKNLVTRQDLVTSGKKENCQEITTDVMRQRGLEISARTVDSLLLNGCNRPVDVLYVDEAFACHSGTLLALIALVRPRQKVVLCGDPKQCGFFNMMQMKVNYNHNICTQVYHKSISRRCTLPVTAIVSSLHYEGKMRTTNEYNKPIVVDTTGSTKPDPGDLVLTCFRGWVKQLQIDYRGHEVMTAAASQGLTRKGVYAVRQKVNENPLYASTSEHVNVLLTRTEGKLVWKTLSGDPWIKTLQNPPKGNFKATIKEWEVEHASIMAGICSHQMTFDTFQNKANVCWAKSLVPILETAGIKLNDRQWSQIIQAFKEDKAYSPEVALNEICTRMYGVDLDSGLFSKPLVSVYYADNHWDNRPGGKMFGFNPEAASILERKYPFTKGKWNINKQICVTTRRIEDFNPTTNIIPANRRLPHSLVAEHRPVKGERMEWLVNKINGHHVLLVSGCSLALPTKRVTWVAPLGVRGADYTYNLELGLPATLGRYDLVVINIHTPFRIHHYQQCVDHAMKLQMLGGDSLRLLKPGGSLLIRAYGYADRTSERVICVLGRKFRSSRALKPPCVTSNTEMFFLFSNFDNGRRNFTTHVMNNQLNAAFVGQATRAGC

Row | Compound | solubility kinetic [1] [µM] | Activity (MRC5) | IC50 (Polyprotein P1234) [µM] | EC50 (Chikungunya virus [2]; [4]) [µM] | inhibition (Chikungunya virus [3]) | EC50 (Chikungunya virus [2]; 181/25, MRC5, read-out: EC50) [µM]
1 | CCN(C)S(=O)(=O)NCC1CCOC2(CCN(C(=O)C3(c4ccccc4)CCCC3)CC2)C1 (configuration not stated) | 160 (≈ 76.4 µg/mL) | Non-toxic | 15.8 | 3.98 |  | 
2 | O=C(N1CCC2(CC1)CC(CN1CCCCS1(=O)=O)CCO2)C1(c2ccccc2F)CCCC1 (configuration not stated) | 190 (≈ 93.6 µg/mL) | Non-toxic | 1 | 0.251 |  | 
3 | Cc1ccnc(NC2CCOC3(CCN(C(=O)C4(c5ccccc5)CCCC4)CC3)C2)c1 (configuration not stated) | 70 (≈ 30.4 µg/mL) | Non-toxic | > 39.8 | 6.31 | 70% | 
4 | O=C(N1CCC2(CC1)CC(CNS(=O)(=O)C1CC1)CCO2)C1(c2ccccc2)CCCC1 (configuration not stated) | 180 (≈ 82.9 µg/mL) | Non-toxic | 20 | 3.98 |  | 
5 | CN(C)S(=O)(=O)NCC1CCOC2(CCN(C(=O)C3(c4ccccc4Cl)CCCC3)CC2)C1 (configuration not stated) |  | Non-toxic | 7.94 | 1.26 |  | 
6 | O=C(N1CCC2(CC1)CC(CNS(=O)(=O)c1ccccc1)CCO2)C1(c2ccccc2)CCCC1 (configuration not stated) | 1 (≈ 0.497 µg/mL) | Non-toxic | > 39.8 | 3.98 | 40% | 
7 | O=C(NCC1CCOC2(CCN(C(=O)C3(c4ccccc4)CCCC3)CC2)C1)C1CCCCC1 (configuration not stated) | 130 (≈ 60.7 µg/mL) | Non-toxic | 31.6 | 2.51 |  | 
8 | CS(=O)(=O)NCC1CCOC2(CCN(C(=O)C3(c4ccccc4)CCCCC3)CC2)C1 (configuration not stated) | 230 (≈ 103 µg/mL) | Non-toxic | > 39.8 | 15.8 | 80% | 
9 | CN(C)S(=O)(=O)N(C)CC1CCOC2(CCN(C(=O)C3(c4ccccc4)CCCC3)CC2)C1 (configuration not stated) | 160 (≈ 76.4 µg/mL) | Non-toxic | 5.01 | 1.58 |  | 
10 | CN(C)S(=O)(=O)NCC1CCOC2(CCN(C(=O)C3(c4cccc(C(F)(F)F)c4)CCCC3)CC2)C1 (configuration not stated) |  | Non-toxic | > 39.8 | 100 | 40% | 
11 | CC(C)NC(=O)NCC1CCOC2(CCN(C(=O)C3(c4ccccc4)CCCC3)CC2)C1 (configuration not stated) | 180 (≈ 79.5 µg/mL) | Non-toxic | > 39.8 | 15.8 | 50% | 
12 | CC(C)(C)NC(=O)NCC1CCOC2(CCN(C(=O)C3(c4ccccc4)CCCC3)CC2)C1 (configuration not stated) | 170 (≈ 77.5 µg/mL) | Non-toxic | > 39.8 | 10 | 80% | 
13 | CCCCCC(=O)NCC1CCOC2(CCN(C(=O)C3(c4ccccc4)CCCC3)CC2)C1 (configuration not stated) | 60 (≈ 27.3 µg/mL) | Non-toxic | 6.31 | 2 |  | 
14 | COc1cccc(C2(C(=O)N3CCC4(CC3)CC(CNS(=O)(=O)N(C)C)CCO4)CCCC2)c1 (configuration not stated) |  | Non-toxic | > 39.8 | 6.31 | 80% | 
15 | O=C(N1CCC2(CC1)CC(Nc1ccccc1)CCO2)C1(c2ccccc2)CCCC1 (configuration not stated) | 20 (≈ 8.37 µg/mL) | Non-toxic | 15.8 | 5.01 |  | 
16 | O=c1nc(NO)ccn1[C@@H]1O[C@H](CO)[C@@H](O)[C@H]1O [N-HYDROXYCYTIDINE] |  |  |  |  |  | 1.2
17 | COc1ccc(C(=O)NCC2CCOC3(CCN(C(=O)C4(c5ccccc5)CCCC4)CC3)C2)cc1 (configuration not stated) | 35 (≈ 17.2 µg/mL) | Non-toxic | 20 | 3.98 |  | 
18 | O=C(NCC1CCOC2(CCN(C(=O)C3(c4ccccc4)CCCC3)CC2)C1)c1ccccn1 (configuration not stated) | 190 (≈ 87.7 µg/mL) | Non-toxic | > 39.8 | 1.58 | 90% | 
19 | COc1ccc(NC(=O)NCC2CCOC3(CCN(C(=O)C4(c5ccccc5)CCCC4)CC3)C2)cc1 (configuration not stated) | 10 (≈ 5.06 µg/mL) | Non-toxic | 20 | 3.98 |  | 
20 | O=C(N1CCC2(CC1)CC(CN1CCCS1(=O)=O)CCO2)C1(c2ccccc2)CCCC1 (configuration not stated) | > 220 | Non-toxic | 1.58 | 0.398 |  | 
21 | O=C(N1CCC2(CC1)CC(Oc1ccccn1)CCO2)C1(c2ccccc2)CCCC1 (configuration not stated) | 20 (≈ 8.41 µg/mL) | Non-toxic | > 39.8 | 1.26 | 60% | 
22 | CC(C)C(=O)NCC1CCOC2(CCN(C(=O)C3(c4ccccc4)CCCC3)CC2)C1 (configuration not stated) | 170 (≈ 72.5 µg/mL) | Non-toxic | > 39.8 | 3.98 | 80% | 
23 | CN(CC1CCOC2(CCN(C(=O)C3(c4ccccc4)CCCC3)CC2)C1)S(=O)(=O)CCCCl (configuration not stated) | 50 (≈ 25.6 µg/mL) | Non-toxic | 1 | 0.398 |  | 
24 | O=C(NCC1CCOC2(CCN(C(=O)C3(c4ccccc4)CCCC3)CC2)C1)c1ccccc1 (configuration not stated) | 70 (≈ 32.2 µg/mL) | Non-toxic | 15.8 | 2.51 |  | 

Row | Compound | solubility kinetic [1] [µM] | Activity (MRC5) | IC50 (Polyprotein P1234) [µM] | EC50 (Chikungunya virus [2]; [4]) [µM] | inhibition (Chikungunya virus [3]) | EC50 (Chikungunya virus [2]; 181/25, MRC5, read-out: EC50) [µM]
25 | COc1cccc(C(=O)NCC2CCOC3(CCN(C(=O)C4(c5ccccc5)CCCC4)CC3)C2)c1 (configuration not stated) | 19 (≈ 9.32 µg/mL) | Non-toxic | > 39.8 | 5.01 | 70% | 
26 | NC(=O)NCC1CCOC2(CCN(C(=O)C3(c4ccccc4)CCCC3)CC2)C1 (configuration not stated) | 190 (≈ 75.9 µg/mL) | Non-toxic | > 39.8 | 12.6 | 50% | 
27 | O=C(N1CCC2(CC1)CC(CNS(=O)(=O)CCCCCl)CCO2)C1(c2ccccc2)CCCC1 (configuration not stated) | 60 (≈ 30.7 µg/mL) | Non-toxic | 10 | 1.26 |  | 
28 | O=C(CCCCl)NCC1CCOC2(CCN(C(=O)C3(c4ccccc4)CCCC3)CC2)C1 (configuration not stated) | 170 (≈ 78.4 µg/mL) | Non-toxic | 2 | 0.316 |  | 
29 | CS(=O)(=O)NCC1CCOC2(CCN(C(=O)C3(c4cccc(Cl)c4)CCCC3)CC2)C1 (configuration not stated) |  | Non-toxic | 20 | 2.51 |  | 
30 | O=C(N1CCC2(CC1)CC(CNS(=O)(=O)CCCCl)CCO2)C1(c2ccccc2)CCCC1 (configuration not stated) | 100 (≈ 49.7 µg/mL) | Non-toxic | 2 | 0.631 |  | 
31 | O=C1CCC(=O)N1CC1CCOC2(CCN(C(=O)C3(c4ccccc4)CCCC3)CC2)C1 (configuration not stated) | 160 (≈ 70.2 µg/mL) | Non-toxic | 1.26 | 1 |  | 
32 | O=C(NCC1CCOC2(CCN(C(=O)C3(c4ccccc4)CCCC3)CC2)C1)Nc1ccccc1 (configuration not stated) | 10 (≈ 4.76 µg/mL) | Non-toxic | 15.8 | 1.26 |  | 
33 | CN(CC1CCOC2(CCN(C(=O)C3(c4ccccc4)CCCC3)CC2)C1)S(C)(=O)=O (configuration not stated) | 180 (≈ 80.8 µg/mL) | Non-toxic | 3.16 | 1.26 |  | 
34 | CCCCCCN(CC1CCOC2(CCN(C(=O)C3(c4ccccc4)CCCC3)CC2)C1)S(C)(=O)=O (configuration not stated) | < 1 | Non-toxic | 12.6 | 1.58 |  | 
35 | O=C(NCC1CCOC2(CCN(C(=O)C3(c4ccccc4)CCCC3)CC2)C1)C1CC1 (configuration not stated) | 160 (≈ 67.9 µg/mL) | Non-toxic | > 39.8 | 3.98 | 80% | 
36 | CCS(=O)(=O)NCC1CCOC2(CCN(C(=O)C3(c4ccccc4)CCCC3)CC2)C1 (configuration not stated) | 230 (≈ 103 µg/mL) | Non-toxic | > 39.8 | 3.16 | 70% | 
37 | CS(=O)(=O)N(Cc1ccccc1)CC1CCOC2(CCN(C(=O)C3(c4ccccc4)CCCC3)CC2)C1 (configuration not stated) | < 1 | Non-toxic |  | 10 | inactive | 
38 | CN(C)S(=O)(=O)NCC1CCOC2(CCN(C(=O)C3(c4ccccc4)CCCC3)CC2)C1 (configuration not stated) | 200 (≈ 92.7 µg/mL) | Non-toxic | > 39.8 | 2.51 | 90% | 
39 | O=C(N1CCC2(CC1)CC(CNCc1ccccc1)CCO2)C1(c2ccccc2)CCCC1 (configuration not stated) | 180 (≈ 80.4 µg/mL) | Non-toxic | > 39.8 | 10 |  | 
40 | COc1ccccc1NC(=O)NCC1CCOC2(CCN(C(=O)C3(c4ccccc4)CCCC3)CC2)C1 (configuration not stated) | < 10 | Non-toxic |  | 3.98 | inactive | 
41 | O=C(NCC1CCOC2(CCN(C(=O)C3(c4ccccc4)CCCC3)CC2)C1)c1ccncc1 (configuration not stated) | 170 (≈ 78.5 µg/mL) | Non-toxic | > 39.8 | 10 | 70% | 
42 | CN(C)S(=O)(=O)NCC1CCOC2(CCN(C(=O)C3(c4ccccc4F)CCCC3)CC2)C1 (configuration not stated) |  | Non-toxic | 31.6 | 5.01 |  | 
43 | O=C(N1CCC2(CC1)CC(CN1CCCCS1(=O)=O)CCO2)C1(c2cc(F)cc(F)c2)CCCC1 (configuration not stated) | 4 (≈ 2.04 µg/mL) | Non-toxic | 0.398 | 0.1 |  | 
44 | O=C(NCC1CCOC2(CCN(C(=O)C3(c4ccccc4)CCCC3)CC2)C1)c1cccnc1 (configuration not stated) | 90 (≈ 41.5 µg/mL) | Non-toxic | 12.6 | 2.51 |  | 
45 | CN(CC1CCOC2(CCN(C(=O)C3(c4ccccc4)CCCC3)CC2)C1)C(=O)c1ccccn1 (configuration not stated) | 180 (≈ 85.6 µg/mL) | Non-toxic | > 39.8 | 5.01 | 80% | 
46 | O=C(N1CCC2(CC1)CC(CNCC(F)(F)F)CCO2)C1(c2ccccc2)CCCC1 (configuration not stated) | 170 (≈ 74.6 µg/mL) | Non-toxic | > 39.8 | 12.6 |  | 
47 | Cc1cccc(C2(C(=O)N3CCC4(CC3)CC(CNS(=O)(=O)N(C)C)CCO4)CCCC2)c1 (configuration not stated) |  | Non-toxic | > 39.8 | 3.98 | 90% | 

Source: ChEMBL document CHEMBL6178023 (J Med Chem, 2025)
